# pIC50: −log10 of the molar value.
# Target: LRRK2 G2019S (Homo sapiens (Human), UniProt Q5S007, G2019S)
# Assay: Adapta kinase assay (LRRK2_IC50 assay)
# Type: biochemical
# Conditions: Adapta TR-FRET, 1 h, room temperature
# Method: In the Adapta™ kinase assay method (LRRK2_IC50 assay): the kinase reaction buffer contained kinase buffer S (Life Technologies, PV5213) and 2 mM DTT (Life Technologies, P2325). The kinases LRRK2 G2019S protein (PV4881) and ERM (LRRKtide, PV5093) were derived from Life Technologies. The Adapta™ universal kinase assay kit (Life Technologies, PV5099) contained the following components: Adapta™ Eu-anti-ADP antibody (PV5097; 4 μg); 10 μM AlexaFluor®647 ADP tracer (PV5098; 200 pmol); TR-FRET dilution buffer (PV3574; 100 mL); kinase quench buffer (P2825; 1 mL); 10 mM ATP (PV3227; 500 μL); and 10 mM ADP (PV5096; 500 μL). LRRK2-IN-1 (1234480-84-2, HY-10875) was derived from MedChem Express.
# Adapta™ Kinase Assay Method
# Adapta® universal kinase assay method is a uniform fluorescence-based immunoassay for detecting ADP. In contrast to ATP consumption assay, Adapta® assay method was very sensitive to ADP formation, with most signal changes occurring when initially 10-20% ATP was converted to ADP. This made Adapta® universal kinase assay method very suitable for low-activity kinases.
# All assays were performed at room temperature (about 21° C.) and were linearly related to time and enzyme concentration under the conditions used. 1× kinase reaction buffer was prepared from 5× kinase buffer S stock solution (listed above), and 10 mL of 1× kinase reaction buffer was prepared by the addition of 2 mL of 5× stock solution to 8 mL of H2O. To the 1× kinase reaction buffer was added 20 μL of 1 M DTT.
# A kinase reaction was performed in a low-volume 384-well plate in a volume of 10 μL. Typically, a Greiner plate was used (Catalog #3674 #, low volume, white wall, 784075). Other untreated assay plates that were not tested could also be suitable. The substrate concentration in the assay was 100 μM, and the 1× kinase reaction buffer consisted of 50 mM Tris-HCl (pH 8.5), 10 mM MgCl2, 1 mM EGTA, 0.01% Brij-35 and 2 mM DTT, as well as any other additives that could be necessary for the particular kinase. The kinase reaction was allowed to proceed for 1 h at room temperature, followed by the addition of a formulation of kinase quenching buffer (EDTA; 30 mM), Eu-labeled antibody (6 nM), and tracer (18.9 nM) in TR-FRET dilution buffer (5 μL). The final concentration of the antibody in the assay wells was 2 nM, the final concentration of the tracer was 6.3 nM, and the final concentration of EDTA was 10 mM. The plate was allowed to equilibrate at room temperature for at least 30 min and then read on a plate reader configured for Adapta™ TR-FRET.
# The data provided in this document were generated by using BMG LABTECH PHERAstar plate reader and using appropriate filters and instrument settings for Adapta™. Test compounds were screened in wells with 1% DMSO (final). For 8-point titration, a 5-fold serial dilution was made on the basis of a starting concentration.
# LRRK2 G2019S, sequence (Q5S007 whole entry G2019S): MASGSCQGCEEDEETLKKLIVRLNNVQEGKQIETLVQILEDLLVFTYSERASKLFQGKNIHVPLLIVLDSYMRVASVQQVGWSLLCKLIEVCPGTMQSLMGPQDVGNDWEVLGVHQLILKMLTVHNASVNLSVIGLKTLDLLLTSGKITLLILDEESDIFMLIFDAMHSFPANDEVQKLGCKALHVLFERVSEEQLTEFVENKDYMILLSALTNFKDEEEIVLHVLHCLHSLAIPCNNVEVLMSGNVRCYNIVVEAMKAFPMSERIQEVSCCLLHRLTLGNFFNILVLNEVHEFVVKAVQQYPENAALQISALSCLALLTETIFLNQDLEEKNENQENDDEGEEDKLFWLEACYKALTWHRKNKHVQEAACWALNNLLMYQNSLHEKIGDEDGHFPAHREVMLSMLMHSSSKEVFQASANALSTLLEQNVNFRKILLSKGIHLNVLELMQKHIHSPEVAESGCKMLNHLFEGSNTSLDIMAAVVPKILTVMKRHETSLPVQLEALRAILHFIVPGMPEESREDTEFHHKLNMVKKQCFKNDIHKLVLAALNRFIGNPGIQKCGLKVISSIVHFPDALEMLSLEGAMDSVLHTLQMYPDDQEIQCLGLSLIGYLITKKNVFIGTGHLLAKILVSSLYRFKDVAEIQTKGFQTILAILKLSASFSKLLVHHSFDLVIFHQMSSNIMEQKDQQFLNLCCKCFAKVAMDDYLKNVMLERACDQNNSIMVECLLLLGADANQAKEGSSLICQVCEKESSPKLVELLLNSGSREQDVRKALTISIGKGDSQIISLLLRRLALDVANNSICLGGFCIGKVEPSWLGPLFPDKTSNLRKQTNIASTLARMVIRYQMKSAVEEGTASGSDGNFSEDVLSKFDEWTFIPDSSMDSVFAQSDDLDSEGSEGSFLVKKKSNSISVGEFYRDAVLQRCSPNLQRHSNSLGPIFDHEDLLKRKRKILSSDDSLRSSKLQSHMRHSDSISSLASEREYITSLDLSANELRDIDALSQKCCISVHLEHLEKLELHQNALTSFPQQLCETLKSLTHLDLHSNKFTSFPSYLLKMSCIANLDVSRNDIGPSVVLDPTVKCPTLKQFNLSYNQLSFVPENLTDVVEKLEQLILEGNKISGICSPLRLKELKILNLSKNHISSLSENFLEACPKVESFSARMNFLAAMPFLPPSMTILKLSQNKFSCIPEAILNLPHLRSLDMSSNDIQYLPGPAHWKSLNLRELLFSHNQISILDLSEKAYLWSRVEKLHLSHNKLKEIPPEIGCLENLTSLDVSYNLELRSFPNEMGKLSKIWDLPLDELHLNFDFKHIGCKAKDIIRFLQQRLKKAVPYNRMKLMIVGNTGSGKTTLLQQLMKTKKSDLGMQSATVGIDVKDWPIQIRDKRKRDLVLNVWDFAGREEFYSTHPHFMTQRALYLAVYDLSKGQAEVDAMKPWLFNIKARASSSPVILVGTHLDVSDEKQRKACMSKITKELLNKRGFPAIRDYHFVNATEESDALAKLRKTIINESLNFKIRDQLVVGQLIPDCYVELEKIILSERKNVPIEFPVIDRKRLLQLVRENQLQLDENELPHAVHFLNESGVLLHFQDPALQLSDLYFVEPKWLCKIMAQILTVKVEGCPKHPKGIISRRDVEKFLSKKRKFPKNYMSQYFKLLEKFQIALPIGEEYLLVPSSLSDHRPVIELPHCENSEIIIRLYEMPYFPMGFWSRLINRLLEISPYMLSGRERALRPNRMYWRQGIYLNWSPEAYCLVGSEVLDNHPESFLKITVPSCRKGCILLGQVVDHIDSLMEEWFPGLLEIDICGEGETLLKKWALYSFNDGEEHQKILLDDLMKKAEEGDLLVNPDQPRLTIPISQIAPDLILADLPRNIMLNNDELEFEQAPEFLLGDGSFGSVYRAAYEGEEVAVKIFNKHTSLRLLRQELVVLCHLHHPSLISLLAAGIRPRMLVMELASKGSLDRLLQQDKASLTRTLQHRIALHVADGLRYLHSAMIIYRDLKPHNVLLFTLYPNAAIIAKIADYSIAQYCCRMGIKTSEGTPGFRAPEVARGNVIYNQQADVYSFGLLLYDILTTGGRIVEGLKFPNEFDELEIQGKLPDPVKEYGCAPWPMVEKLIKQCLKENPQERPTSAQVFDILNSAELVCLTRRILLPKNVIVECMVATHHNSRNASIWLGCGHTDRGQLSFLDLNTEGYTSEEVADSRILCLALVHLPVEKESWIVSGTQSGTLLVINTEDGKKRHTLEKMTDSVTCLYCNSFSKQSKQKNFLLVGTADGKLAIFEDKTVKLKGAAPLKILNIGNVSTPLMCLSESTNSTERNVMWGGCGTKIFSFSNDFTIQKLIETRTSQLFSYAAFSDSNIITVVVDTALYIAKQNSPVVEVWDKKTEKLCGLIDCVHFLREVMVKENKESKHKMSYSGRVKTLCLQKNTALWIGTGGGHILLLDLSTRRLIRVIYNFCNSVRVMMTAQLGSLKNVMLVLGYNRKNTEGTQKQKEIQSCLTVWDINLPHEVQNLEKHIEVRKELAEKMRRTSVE
row,pIC50,SMILES
1,7.28,"COc1cc(C(N2C[C@@H]3C[C@H]2CO3)C(F)(F)F)ccc1Nc1nc(OCC(F)(F)F)c2cc[nH]c2n1 (single isomer, unassigned) [Compound 8]"
2,7.96,"CCOc1nc(Nc2ccc(C(N3C[C@@H]4C[C@H]3CO4)C(F)(F)F)cc2OC)nc2[nH]ccc12 (single isomer, unassigned) [Compound 10]"
3,7.66,"CCOc1nc(Nc2ccc(C(N3CCN(C)CC3)C(F)(F)F)cc2OC)nc2[nH]ccc12 (single isomer, unassigned) [Compound 30]"
4,7.51,"CCOc1nc(Nc2ccc(C(N3CCOCC3)C(F)(F)F)cc2F)nc2[nH]ccc12 (single isomer, unassigned) [Compound 13]"
5,7.52,"CCOc1nc(Nc2ccc(C(N3CCOCC3)C(F)(F)F)cc2F)nc2[nH]ccc12 (single isomer, unassigned) [Compound 14]"
6,7.60,COc1cc(C2(N3CCOCC3)CC2)c(F)cc1Nc1nc(OC)c2cc[nH]c2n1 [Compound 38]
7,6.48,"CCc1nc(Nc2ccc(C(N3CCOCC3)C(F)(F)F)cc2OC)nc2[nH]ccc12 (single isomer, unassigned) [Compound 19]"
8,7.77,"COc1cc(C(N2CCOCC2)C(F)(F)F)ccc1Nc1nc(OCC(F)(F)F)c2cc[nH]c2n1 (single isomer, unassigned) [Compound 5]"
9,7.19,"CCOc1nc(Nc2ccc(C(N3CCN4CCC[C@@H]4C3)C(F)(F)F)cc2OC)nc2[nH]ccc12 (single isomer, unassigned) [Compound 31]"
10,6.83,"COc1nc(Nc2ccc(C(N3CCOCC3)C(F)(F)F)cc2Cl)nc2[nH]ccc12 (single isomer, unassigned) [Compound 23]"
11,7.15,"CCOc1nc(Nc2ccc(C(N3CCOCC3)C(F)(F)F)cc2CC)nc2[nH]ccc12 (single isomer, unassigned) [Compound 26]"
12,8.00,"CCOc1nc(Nc2ccc(C(N3C[C@H]4C[C@@H]3CO4)C(F)(F)F)cc2OC)nc2[nH]ccc12 (single isomer, unassigned) [Compound 33]"
13,6.91,"COc1nc(Nc2ccc(C(N3CCOCC3)C(F)(F)F)cc2Cl)nc2[nH]ccc12 (single isomer, unassigned) [Compound 24]"
14,6.56,"CCOc1nc(Nc2ccc(C(C)(N3CCOCC3)C(F)(F)F)cc2OC)nc2[nH]ccc12 (single isomer, unassigned) [Compound 35, 4-ethoxy-N-(2-methoxy-4-(1,1,1-trifluoro-2-morpholinopropan-2-yl)phenyl)-7H-pyrrolo[2,3-d]pyrimidin-2-amine]"
15,6.86,"CCOc1nc(Nc2ccc(C(N3CCOCC3)C(F)(F)F)cc2Cl)nc2[nH]ccc12 (single isomer, unassigned) [Compound 22]"
16,7.92,"COCCOc1nc(Nc2ccc(C(N3CCOCC3)C(F)(F)F)cc2OC)nc2[nH]ccc12 (single isomer, unassigned) [Compound 12]"
17,7.33,"COc1cc(C(N2C[C@@H]3C[C@H]2CO3)C(F)(F)F)ccc1Nc1nc(OCC(F)(F)F)c2cc[nH]c2n1 (single isomer, unassigned) [Compound 7]"
18,6.60,"COc1cc(C(N2CCOCC2)C(F)(F)F)ccc1Nc1nc(C)c2cc[nH]c2n1 (single isomer, unassigned) [Compound 18]"
19,8.10,"CCOc1nc(Nc2ccc(C(N3C[C@H]4C[C@@H]3CO4)C(F)(F)F)cc2OC)nc2[nH]ccc12 (single isomer, unassigned) [Compound 34]"
20,7.42,CCOc1nc(Nc2cc(F)c(C3(N4CCOCC4)CC3)cc2OC)nc2[nH]ccc12 [Compound 36]

row,SMILES,pIC50
1,"CCOc1nc(Nc2ccc(C(N3CCOCC3)C(F)(F)F)cc2OC)nc2[nH]ccc12 (single isomer, unassigned) [Compound 1, 4-ethoxy-N-(2-methoxy-4-(2,2,2-trifluoro-1-morpholinoethyl)phenyl)-7H-pyrrolo[2,3-d]pyrimidin-2-amine]",7.92
